How the values were obtained:
[1] = pH 7.4

For “Poly[(isoleucineethylester)(aminomethoxy polyethyleneglycol550)(cysteamine)phosphazene] [Example 21]”, the “cell viability (MTT)” value (NIH3T3 cells) was “such a high viability as the cell alone” and the “Max. Gelling Temp.” value [1] was 38 °C.
With “Poly[(isoleucineethylester)(aminomethoxy polyethyleneglycol550)(tyramine)phosphazene] [Example 24]” the “Max. Gelling Temp.” value [1] was 34 °C.
With “Poly[(isoleucineethylester)(aminomethoxy polyethyleneglycol550)(cysteamine)phosphazene] [Example 22]” the “cell viability (MTT)” value (NIH3T3 cells) was “such a high viability as the cell alone” and the “Max. Gelling Temp.” value [1] was 42 °C.

Reference: patent publication US8586020B2, “Poly(organophosphazene) composition for biomaterials” (Korea Institute of Science and Technology, priority 2011, dated 2013)
